{"source": "patent US12156865B2", "about": "“Formulation for soft anticholinergic analogs” (Bodor Laboratories, Inc., priority 2016, dated 2024)", "key": {"[1]": {"assay": "Stability of approximately 2% BBI-4000 formulations in four solvent systems (HPLC)", "assay_type": "physicochemical", "details": "for Change from Baseline (40° C./75%), reduction: after 7 days at 40° C./75% humidity", "procedure": "Various formulations of approximately 2% BBI-4000 were made and their stabilities assessed. The solvent systems were as follows:\n(a) solvent content: 100% water;\n(b) solvent content: 60% water/40% ethanol;\n(c) solvent content: 30% water/70% ethanol;\n(d) solvent content: 100% ethanol.\nEach sample was assessed at baseline; after 7 days at 25° C./60% humidity; and after 7 days at 40° C./75% humidity. The percentage change from baseline for 40° C. after 7 days was calculated in each case. HPLC analysis was conducted as described in EXAMPLE 2 below."}, "[2]": {"assay": "Toxicokinetics (PK analysis) in Gottingen Minipigs", "assay_type": "in vivo", "quoted_text": "(§2) All groups received 2 mL of gel formulation, once a day, for 14 consecutive days, applied to approximately 10% of their body surface area on their backs.\nBlood samples for chemistry and hematology analysis were collected as well as PK samples.\n(§3) The estimated BBI-4000 dose applied to the skin in this study was 40 mg/kg/day for Group 3 and 20 mg/kg/day for Group 2."}, "[3]": {"test_system": "sweat production in subjects with axillary hyperhidrosis", "assay": "Study BBI-4000-CL-101: gravimetrically measured sweat production", "assay_type": "in vivo, human", "procedure": "(§1) Efficacy was assessed by the change in gravimetrically measured sweat production and the change in hyperhidrosis disease severity scale (HDSS) from baseline to Day 15 (end of therapy).\nFor the gravimetric assessment, sweat production was measured by placing filter paper (pre-weighed) on the axilla for 5 minutes while the subject was in a semi-reclining position at room temperature. The filter paper was covered with plastic during exposure to the axilla, and was then weighed following the 5-minute exposure period to calculate the amount of sweat produced."}, "[4]": {"test_system": "subjects with axillary hyperhidrosis", "assay": "Study BBI-4000-CL-101: hyperhidrosis disease severity scale (HDSS)", "assay_type": "in vivo, human", "procedure": "as §1\nFor the HDSS, subjects rated the severity of their hyperhidrosis on a 4-point scale (1, 2, 3, or 4) based on the level of interference with their daily activities."}, "[5]": {"test_system": "Gottingen Minipigs", "assay": "14-day dermal and systemic toxicity study in Gottingen Minipigs", "details": "anhydrous composition, 14 days", "quoted_text": "as §2\nThe study included daily observations of the site of application and scoring of erythema and edema (if present), daily general examinations including heart rate as well as pupil size assessment at days 1, 2, 3, 5, 7, 10 and 14. The frequent observations of heart rate and pupil size were intended to identify any potential systemic anticholinergic effect. Main organs were evaluated during necropsy and histopathology evaluation was completed for treated and untreated skin. Blood samples for chemistry and hematology analysis were collected as well as PK samples.\nas §3"}, "[6]": {"assay": "Hydrolysis and stability testing of aqueous BBI-4000 formulations (HPLC)", "details": "aqueous formulations of Table II", "quoted_text": "An HPLC method was developed at a commercial laboratory for assaying the soft anticholinergic analog, and related substances (including hydrolysis products):\n• High performance liquid chromatography (HPLC) system Chromatography data system • XBridge Shield RP18, 4.6×150 mm, 3.5 μm HPLC column • Analytical balance capable of weighing to 0.00001 g • Ultrasonic bath • Volumetric flasks, 1, 5 mL • Syringe Filter: 25 mm, 0.45 μm, HPF Millex-HV, Millipore or suitable alternative\n• BBI-4000 standard • Water, HPLC grade • Acetonitrile (can), Optima grade • Trifluroacetic acid (TFA), Fisher • Mobile Phase “A”: 0.1% TFA in Water • Mobile Phase “B”: 0.1% TFA in Acetonitrile • Auto Sampler Flush: 1:1 Water:Acetonitrile • Diluent: Acetonitrile\nThe standards were prepared in duplicate by weighing 2.0±0.1 mg of BBI-4000 into 1 mL volumetric flasks. Dissolved and diluted to volume with acetonitrile and mixed by inversion.\nThe liquid chromatographic system was set-up as follows: • HPLC Column: XBridge Shield RP18, 4.6×150 mm, 3.5 μm • Column Temp.: 25±1° C. • Sample Temp.: ambiant • Flow Rate: 1.5 mL/min • Injection Volume: 10 μL • UV Detection: 220 nm • Run Time: 20 minutes\nThe HPLC assay was conducted on formulations at differing pH values, and the results were reviewed for “Time-Zero” and at 7 days at 40° C.:"}, "[7]": {"details": "Solvent Content: 30% water, 70% Ethanol, Baseline"}, "[8]": {"details": "Solvent Content: 30% water, 70% Ethanol, Day 7 @ 25° C./60%"}, "[9]": {"details": "Solvent Content: 30% water, 70% Ethanol, Day 7 @ 40° C./75%"}, "[10]": {"details": "Solvent Content: 60% water, 40% Ethanol, Baseline"}, "[11]": {"details": "Solvent Content: 60% water, 40% Ethanol, Day 7 @ 25° C./60%"}, "[12]": {"details": "Solvent Content: 60% water, 40% Ethanol, Day 7 @ 40° C./75%"}, "[13]": {"details": "Solvent Content: 100% Ethanol, Baseline"}, "[14]": {"details": "Solvent Content: 100% Ethanol, Day 7 @ 25° C./60%"}, "[15]": {"details": "Solvent Content: 100% Ethanol, Day 7 @ 40° C./75%"}, "[16]": {"details": "Solvent Content: 100% Water, Baseline"}, "[17]": {"details": "Solvent Content: 100% Water, Day 7 @ 25° C./60%"}, "[18]": {"details": "Solvent Content: 100% Water, Day 7 @ 40° C./75%"}}, "data": [{"molecule": "CCOC(=O)C[N@+]1(C)CCC(OC(=O)[C@](O)(c2ccccc2)C2CCCC2)C1.[Br-]", "note": "(stereo partly drawn) [BBI-4000, (2R,3′R) 3-(2-cyclopentyl-2-phenyl-2-hydroxyacetoxy)-1-(ethoxycarbonylmethyl)-1-methylpyrrolidinium bromide]", "values": [{"measurement": "BBI-4000 Assay", "setting": "[1]; [7]", "result": 1.99, "unit": "%"}, {"measurement": "BBI-4000 Main Hydrolysis Products (RRT-0.79-0.84)", "setting": "[1]; [7]", "result": 0, "unit": "%"}, {"measurement": "BBI-4000 Assay", "setting": "[1]; [8]", "result": 1.95, "unit": "%"}, {"measurement": "BBI-4000 Main Hydrolysis Products (RRT-0.79-0.84)", "setting": "[1]; [8]", "result": 0.84, "unit": "%"}, {"measurement": "BBI-4000 Assay", "setting": "[1]; [9]", "result": 1.89, "unit": "%"}, {"measurement": "BBI-4000 Main Hydrolysis Products (RRT-0.79-0.84)", "setting": "[1]; [9]", "result": 3.50, "unit": "%"}, {"measurement": "Change from Baseline (40° C./75%), reduction", "setting": "[1]; Solvent Content: 30% water, 70% Ethanol", "result": 5, "unit": "%"}, {"measurement": "BBI-4000 Assay", "setting": "[1]; [10]", "result": 1.99, "unit": "%"}, {"measurement": "BBI-4000 Main Hydrolysis Products (RRT-0.79-0.84)", "setting": "[1]; [10]", "result": 0, "unit": "%"}, {"measurement": "BBI-4000 Assay", "setting": "[1]; [11]", "result": 1.94, "unit": "%"}, {"measurement": "BBI-4000 Main Hydrolysis Products (RRT-0.79-0.84)", "setting": "[1]; [11]", "result": 0.83, "unit": "%"}, {"measurement": "BBI-4000 Assay", "setting": "[1]; [12]", "result": 1.89, "unit": "%"}, {"measurement": "BBI-4000 Main Hydrolysis Products (RRT-0.79-0.84)", "setting": "[1]; [12]", "result": 3.40, "unit": "%"}, {"measurement": "Change from Baseline (40° C./75%), reduction", "setting": "[1]; Solvent Content: 60% water, 40% Ethanol", "result": 5, "unit": "%"}, {"measurement": "BBI-4000 Assay", "setting": "[1]; [13]", "result": 2.02, "unit": "%"}, {"measurement": "BBI-4000 Main Hydrolysis Products (RRT-0.79-0.84)", "setting": "[1]; [13]", "result": 0, "unit": "%"}, {"measurement": "BBI-4000 Assay", "setting": "[1]; [14]", "result": 2, "unit": "%"}, {"measurement": "BBI-4000 Main Hydrolysis Products (RRT-0.79-0.84)", "setting": "[1]; [14]", "result": 0, "unit": "%"}, {"measurement": "BBI-4000 Assay", "setting": "[1]; [15]", "result": 2.01, "unit": "%"}, {"measurement": "BBI-4000 Main Hydrolysis Products (RRT-0.79-0.84)", "setting": "[1]; [15]", "result": 0, "unit": "%"}, {"measurement": "Change from Baseline (40° C./75%), reduction", "setting": "[1]; Solvent Content: 100% Ethanol", "result": "<1", "unit": "%"}, {"measurement": "BBI-4000 Assay", "setting": "[1]; [16]", "result": 1.99, "unit": "%"}, {"measurement": "BBI-4000 Main Hydrolysis Products (RRT-0.79-0.84)", "setting": "[1]; [16]", "result": 0, "unit": "%"}, {"measurement": "BBI-4000 Assay", "setting": "[1]; [17]", "result": 1.91, "unit": "%"}, {"measurement": "BBI-4000 Main Hydrolysis Products (RRT-0.79-0.84)", "setting": "[1]; [17]", "result": 1.90, "unit": "%"}, {"measurement": "BBI-4000 Assay", "setting": "[1]; [18]", "result": 1.80, "unit": "%"}, {"measurement": "BBI-4000 Main Hydrolysis Products (RRT-0.79-0.84)", "setting": "[1]; [18]", "result": 7.42, "unit": "%"}, {"measurement": "Change from Baseline (40° C./75%), reduction", "setting": "[1]; Solvent Content: 100% Water", "result": 9.5, "unit": "%"}, {"measurement": "Systemic exposure of BBI-4000 (PK analysis)", "setting": "[2]; 10% and 20% gel (20 and 40 mg/kg/day), topical, 14 days", "result": "variable, dose related systemic exposure"}, {"measurement": "Time at which the highest concentration was observed", "setting": "[2]; after Day-14 dosing, minipig receiving 20% BBI-4000 concentration", "result": 2, "unit": "h"}, {"measurement": "Reduction in gravimetrically measured sweat production compared to vehicle", "setting": "[3]; Cohort 2, baseline to Day 15", "result": "greater reduction"}, {"measurement": "Proportion of subjects with at least a 50% reduction in sweat production", "setting": "[3]; Day 15, aggregate of 5% and 10% gel (9 of 12)", "result": 75, "unit": "%"}, {"measurement": "Improvement in HDSS assessments compared to vehicle", "setting": "[4]; Cohort 2, baseline to Day 15", "result": "greater improvement"}, {"measurement": "Proportion of subjects reporting a 2-point improvement in HDSS", "setting": "[4]; Day 15, aggregate of 5% and 10% gel (8 of 12)", "result": 67, "unit": "%"}, {"measurement": "Histopathology analysis of treated skin", "setting": "[5]", "result": "unremarkable and identical to non-treated and vehicle treated skin"}, {"measurement": "BBI-4000 content (assay number)", "setting": "[6]; differing pH, Day 7 at 40° C. vs Time-Zero", "result": "decreased"}, {"measurement": "Hydrolytic degradation products (two zwitterion stereoisomers, RRT 0.84 and RRT 0.80)", "setting": "[6]; Day 7 at 40° C.", "result": "noticeably increased"}]}]}
